This is an account of results in PubChem BioAssay AID1189 (EPA DSSTox, 2008).

SMILES strings stand for the structures. Active and inactive are the calls of the source.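 Rule for the calls: active = a tumor-causing dose value with its tumor site reported for any sex and species group of a rodent or other animal cancer study; inconclusive = only studies judged inadequate by the national testing program; inactive = tested in at least one study, none positive.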 Numbered stars: 1 amine (or outer) side, 2 acyl side, 3 side chain; on linkers, the order of the positions; unused ones are H or OH. Bridge positions count the residues as written; N and C are the ends. Square brackets hold non-standard residues; d marks the D form. Peptide text beside a SMILES is read from it. I, II: the chains in the order shown. Actinocin(9to1) = Cc1c2oc3c(C)ccc(C(=O)[*:1])c3nc-2c(C(=O)[*:2])c(N)c1=O; NMeV = CN[C@H](C(=O)O)C(C)C; Sar = CNCC(=O)O

The nature of this series: DSSTox (CPDBAS) Carcinogenic Potency Database Summary SingleCellCall Results. The conditions noted are these: animal chronic carcinogenicity bioassays, CPDB summary call. In outline:
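Literature-derived summary: each substance receives an overall carcinogenic/non-carcinogenic category drawn from long-term bioassays in rats, mice, hamsters, dogs or primates, using the most positive sex-species experiment and minimal evidence criteria.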
Turning to `Cc1ccc(Cc2cnc(NCCSCc3ccc(CN(C)C)o3)[nH]c2=O)cn1`, the outcome was active.
The result for `CCOc1nc2cccc(C(=O)OC(C)OC(=O)OC3CCCCC3)c2n1Cc1ccc(-c2ccccc2-c2nn[nH]n2)cc1` (configuration not stated) reads “inactive”; that for `CC1=CC(=O)NS(=O)(=O)O1`, “inactive”; that for `O=C(Nc1ccc([N+](=O)[O-])cc1Cl)c1cc(Cl)ccc1O`, “inactive”.
For `O=S(=O)(c1ccc(Cl)cc1)c1ccc(Cl)cc1` the value was “inactive; active”; for `CC(C)Nc1nc(Cl)nc(NC(C)C)n1`, “inactive”; for `NC1=NCN([C@@H]2O[C@H](CO)[C@@H](O)[C@H]2O)C(=O)N1`, “inactive; active”.
The result for `CCCCC/C=C\C/C=C\CCCCCCCC(=O)OC` reads “inactive”; that for `Nc1ccc(-c2ccc(N)c(N)c2)cc1N`, “active”; that for `C=C/C=N/O`, “inactive”.
Turning to `C#C[C@@]1(O)CC[C@H]2[C@@H]3CCC4=CCCC[C@@H]4[C@H]3CC[C@@]21C`, the result was active.
The result for `C=C(C)C` reads “active”; that for `CN(Cc1cnc2nc(N)nc(N)c2n1)c1ccc(C(=O)N[C@@H](CCC(=O)O)C(=O)O)cc1`, “inactive”; that for `ClC=C(Cl)Cl`, “active; inactive”.
For the molecule `CCC1NC(=O)C2C(Cl)C(Cl)CN2C(=O)C(CO)NC(=O)CC(c2ccccc2)NC(=O)C(CO)NC1=O` (configuration not stated), the outcome is “active; inactive”.
The result for `Cc1ccc2c(c1[N+](=O)[O-])C(=O)c1ccccc1C2=O` reads “active”; that for `Cc1cc(O)c2c(c1)C(=O)c1cc(O)cc(O)c1C2=O`, “inactive; active”.
For `O=NN1CCCCC1C(=O)O` (configuration not stated) the value was “inactive”; for `O=C(O)CC(O)(CC(=O)O)C(=O)O`, “inactive”; for `C=CCc1ccc(OC)cc1`, “active”.
Regarding `Cc1ccc(S(=O)(=O)Oc2ccc(N=Nc3ccc(-c4ccc(N=Nc5c(O)ccc6cc(S(=O)(=O)O)cc(S(=O)(=O)O)c56)c(C)c4)cc3C)cc2)cc1`, the result was active.
The result for `O=C1C2CC=CCC2C(=O)N1SC(Cl)(Cl)Cl` (configuration not stated) reads “active”; that for `CC[C@H]1OC(=O)C[C@@H](O)[C@H](C)[C@@H](O[C@@H]2O[C@H](C)[C@@H](O[C@H]3C[C@@](C)(O)[C@@H](O)[C@H](C)O3)[C@H](N(C)C)[C@H]2O)[C@@H](CC=O)C[C@@H](C)C(=O)/C=C/C(C)=C/C1CO[C@@H]1O[C@H](C)[C@@H](O)[C@@H](OC)[C@H]1OC` (some centres not stated), “inactive”; that for `COc1cc2c(c3oc(=O)c4c(c13)CC[C@H]4O)[C@@H]1C=CO[C@H]1O2`, “active”.
The result for `CC(=O)Nc1ccc2c(c1)C(=O)c1ccccc1-2` reads “active”; that for `CC(=O)CN(C)N=O`, “active”; that for `COc1ccc(C(=O)/C(Br)=C\C(=O)O)cc1`, “active”.
For `c1ccc2c(c1)ccc1cc3c(ccc4ccccc43)cc12` the value was “active”.
`Cc1cccc2ccccc12`: the outcome is “inactive; active”.
On to `CC(C)CON=O`, for which the outcome was active.
`O=CC1CO1` (configuration not stated): the outcome was inactive.
For the molecule `C=CCNN`, the outcome was active.
For `CC(C)CN(N=O)C(N)=O` the value was “active”.
As for `CCCCOC(=O)COc1ccc(Cl)cc1Cl`, the result was inactive.
The result for `O=NN(CCO)CCO` reads “active; inactive”.
For `O=CCCCC=O` the value was “inactive; active”.
Take `NC(=O)CI`: the outcome was “inactive; active”.
For `CCCCN(N)C=O` the value was “active”.
The result for `Cc1[nH]cnc1CSCCN=C(NC#N)N(C)N=O` reads “inactive; active”; that for `O=S(=O)(O)c1cc(S(=O)(=O)O)c2c(N=Nc3ccc(S(=O)(=O)O)c4ccccc34)c(O)ccc2c1`, “active; inactive”; that for `Nc1c(F)c(N)c(F)c(F)c1F`, “active; inactive”.
For `CC=O` the value was “active; inactive”; for `O=[N+]([O-])c1ccc(O)c([N+](=O)[O-])c1`, “inactive”; for `C#C[C@]1(O)CC[C@H]2[C@@H]3CCc4cc(O)ccc4[C@H]3CC[C@@]21C`, “active; inactive”.
Regarding `CCCCCC(N)=O`, the result was active.
The result for `O=NN(CCCC(F)(F)F)CCCC(F)(F)F` reads “active”; that for `CC(COc1ccccc1)N(CCCl)Cc1ccccc1` (configuration not stated), “active; inactive”.
For `C[C@H]1CCCCN1N=O` the value was “active”.
For `C=C1C[C@]23C[C@@]1(O)CC[C@H]2[C@@]12C=C[C@H](O)[C@@](C)(C(=O)O1)[C@H]2[C@@H]3C(=O)O` the value was “inactive”.
For `CNC(=O)Oc1cc(C)c(N(C)C)c(C)c1`, the outcome was inactive.
For `C=CBr` the value was “active”.
The result for `CN1C2CC[C@@H]1CC(NC(=O)c1cc(Cl)cc3c1OC(C)(C)C3)C2` (some centres not stated) reads “inactive”; that for `Nc1nc(/C=C/c2ccc([N+](=O)[O-])o2)no1`, “active”.
The result for `O=[N+]([O-])c1cccc2ccccc12` reads “inactive”.
Consider `CCN(CC)CC#CC(C)(C)OC(=O)C(O)(c1ccccc1)C1CCCCC1` (configuration not stated), for which the outcome is “inactive; active”.
With `CN[C@H]1CC[C@@H](c2ccc(Cl)c(Cl)c2)c2ccccc21`, the outcome was inactive.
For `Cc1c2oc3c(C)ccc(C(=O)N[C@@H]4C(=O)N[C@H](C(C)C)C(=O)N5CCC[C@H]5C(=O)N(C)CC(=O)N(C)[C@@H](C(C)C)C(=O)O[C@@H]4C)c3nc-2c(C(=O)N[C@@H]2C(=O)N[C@H](C(C)C)C(=O)N3CCC[C@H]3C(=O)N(C)CC(=O)N(C)[C@@H](C(C)C)C(=O)O[C@@H]2C)c(N)c1=O` (I: T[dV]P[Sar][NMeV] / II: T[dV]P[Sar][NMeV]; ester I:1-I:C, II:1-II:C; linker I:N-II:N via Actinocin(9to1)) the value was “active; inactive”; for `COP(=O)(OC)OC`, “active”; for `CC/C(=C(\c1ccccc1)c1ccc(OCCN(C)C)cc1)c1ccccc1`, “active”.
For `N#CS` the value was “inactive”; for `CCCCCCCCCCN(C)N=O`, “active”; for `C=CCOc1ccc(CC(=O)O)cc1Cl`, “inactive”.
The result for `O=S(=O)(Oc1ccc(Cl)cc1Cl)c1ccccc1` reads “inactive”; that for `Clc1cccc(-c2ccc(Cl)c(Cl)c2Cl)c1Cl`, “active”.
`NCCCCCC(=O)O`: the outcome was “inactive; active”.
The result for `COc1ccc(O)cc1` reads “active”.
For `COc1ccc(CCN2CCC(Nc3nc4ccccc4n3Cc3ccc(F)cc3)CC2)cc1` the value was “inactive”.
Regarding `CC(=O)CN(CC(C)=O)N=O`, the outcome was active.
For `CC(Cc1ccccc1)NN` (configuration not stated) the value was “inactive”; for `C[N+](=O)[O-]`, “active”; for `OC[C@H]1O[C@H](O[C@]2(CCl)O[C@H](CCl)[C@@H](O)[C@@H]2O)[C@H](O)[C@@H](O)[C@H]1Cl`, “inactive”.
For `OC[C@@H](O)[C@H]1O[C@@H]2O[C@H](C(Cl)(Cl)Cl)O[C@@H]2[C@H]1O` the value was “inactive”; for `Oc1ccc(OCc2ccccc2)cc1`, “inactive; active”; for `CN(C)CCO`, “inactive; active”.
The result for `OC[C@H]1O[C@@](CO)(O[C@H]2O[C@H](CO)[C@@H](O)[C@H](O)[C@H]2O)[C@@H](O)[C@@H]1O` reads “inactive”; that for `CC1CCC(C(C)C)C(O)C1` (configuration not stated), “inactive”; that for `CCn1nc(C)c2c1C(c1ccccc1)=NCC(=O)N2`, “active”.
On to `CCCCCCCCCCCN(C)N=O`, for which the outcome is “active; inactive”.
The result for `O=[N+]([O-])c1cccc2cccnc12` reads “active; inactive”; that for `CCOC(=O)C(O)(c1ccc(Cl)cc1)c1ccc(Cl)cc1`, “active”.
For `NC1CCCCC1` the value was “inactive”; for `Oc1cccc2cccnc12`, “inactive”.
The result for `CCOCCc1c(-c2ccccc2)nc(N)n2ncnc12` reads “active; inactive”; that for `CCCCCCCCCCCCC(=O)COC1=C(O)C(=O)O[C@@H]1[C@@H](O)CO`, “inactive”.
In the case of `S=C(NC1CCCCC1)NC1CCCCC1`, the outcome was “inactive; active”.
The result for `Nc1ccc([N+](=O)[O-])cc1N` reads “inactive; active”; that for `O`, “inactive”; that for `O=NN1CCC1`, “active”.
The result for `CCNNC(=O)[C@@H]1[C@H](c2cc(OC)c(OC)c(OC)c2)c2cc3c(cc2[C@H](O)[C@H]1CO)OCO3` reads “inactive”; that for `CN(N=O)C(=O)N[C@@H]1[C@@H](O)[C@H](O)[C@@H](CO)O[C@@H]1O`, “active”.
For `S=C(SSSSSSC(=S)N1CCCCC1)N1CCCCC1` the value was “inactive”; for `O=C1CC(=O)NC(=O)N1`, “inactive”; for `CC(O)CN(C)c1ccc(NN)nn1` (configuration not stated), “inactive”.
Turning to `C=CCc1ccc2c(c1)OCO2`, the result was active.
For `CN(CCCC(=O)c1cccnc1)N=O` the value was “active”; for `NNCc1ccccc1`, “active”.
Regarding `CC(C)C/C=N/N(C)C=O`, the result was active.
The result for `C=C1CC[C@H](O)C/C1=C/C=C1\CCC[C@]2(C)[C@@H]([C@H](C)/C=C/[C@H](C)C(C)C)CC[C@@H]12` reads “inactive”; that for `ClC(Cl)C(Cl)(Cl)Cl`, “active”; that for `CC1=C[C@H]2O[C@@H]3[C@H](O)[C@@H](O)[C@@](C)(C34CO4)[C@@]2(CO)[C@H](O)C1=O` (some centres not stated), “inactive; active”.
The result for `S=C([S-])NCCNC(=S)[S-].[Mn+2]` reads “active”; that for `Cc1c(N(C)C)c(=O)n(-c2ccccc2)n1C`, “inactive”.
